Assay results from article PMC8113725, “Structure–activity relationship of ipglycermide binding to phosphoglycerate mutases” (The Journal of Biological Chemistry, 2021).
Where two headings read alike, the source gives them in different places. Bridge positions count the residues as written; N and C are the ends. Square brackets hold non-standard residues; d marks the D form. Ends that are not written are not given here. Peptide text beside a SMILES is read from it. * marks the point of attachment. Phe(4-F) = N[C@@H](Cc1ccc(F)cc1)C(=O)O; Nva = CCC[C@H](N)C(=O)O; NHOH = ON*

B1: iPGM (protein)
chain: MLVSKKPMVLVILDGYGYREEQQDNAIFSAKTPVMDALWANRPHTLIDASGLEVGLPDRQMGNSEVGHVNLGAGRIVYQDLTRLDVEIKDRAFFANPVLTGAVDKAKNAGKAVHIMGLLSAGGVHSHEDHIMAMVELAAERGAEKIYLHAFLDGRDTPPRSAESSLKKFEEKFAALGKGRVASIIGRYYAMDRDNRWDRVEKAYDLLTLAQGEFQADTAVAGLQAAYARDENDEFVKATVIRAEGQPDAAMEDGDALIFMNFRADRAREITRAFVNADFDGFARKKVVNVDFVMLTEYAADIKTAVAYPPASLVNTFGEWMAKNDKTQLRISETEKYAHVTFFFNGGVEESFKGEDRILINSPKVATYDLQPEMSSAELTEKLVAAIKSGKYDTIICNYPNGDMVGHTGVMEAAVKAVEALDHCVEEVAKAVESVGGQLLITADHGNAEQMRDPATGQAHTAHTNLPVPLIYVGDKNVKAVEGGKLSDIAPTMLSLMGMEIPQEMTGKPLFIVE
B2: iPGM (protein)
chain: MFVALGAQIYRQYFGRRGMAMANNSSVANKVCLIVIDGWGVSEDPYGNAILNAQTPVMDKLCSGNWAQIEAHGLHVGLPEGLMGNSEVGHLNIGAGRVIYQDIVRINLAVKNNKFVTNESLVDACDRAKNGNGRLHLAGLVSDGGVHSHIDHMFALVKAIKELGVPELYLHFYGDGRDTSPNSGVGFLEQTLEFLEKTTGYGKLATVVGRYYAMDRDNRWERINVAYEAMIGGVGETSDEAGVVEVVRKRYAADETDEFLKPIILQGEKGRVQNDDTIIFFDYRADRMREISAAMGMDRYKDCNSKLAHPSNLQVYGMTQYKAEFPFKSLFPPASNKNVLAEWLAEQKVSQFHCAETEKYAHVTFFFNGGLEKQFEGEERCLVPSPKVATYDLQPEMSAAGVADKMIEQLEAGTHPFIMCNFAPPDMVGHTGVYEAAVKACEATDIAIGRIYEATQKHGYSLMVTADHGNAEKMKAPDGGKHTAHTCYRVPLTLSHPGFKFVDPADRHPALCDVAPTVLAIMGLPQPAEMTGVSIVQKI
B3: iPGM (protein)
chain: MAEAKNRVCLVVIDGWGISNETKGNAILNAKTPVMDELCVMNSHPIQAHGLHVGLPEGLMGNSEVGHLNIGAGRVVYQDIVRINLAVKNKTLVENKHLKEAAERAIKGNGRMHLCGLVSDGGVHSHIDHLFALITALKQLKVPKLYIQFFGDGRDTSPTSGVGFLQQLIDFVNKEQYGEISTIVGRYYAMDRDKRWERIRVCYDALIGGVGEKTTIDKAIDVIKGRYAKDETDEFLKPIILSDEGRTKDGDTLIFFDYRADRMREITECMGMERYKDLNSNIKHPKNMQVIGMTQYKAEFTFPALFPPESHKNVLAEWLSVNGLTQFHCAETEKYAHVTFFFNGGVEKQFANEERCLVVSPKVATYDLEPPMSSAAVADKVIEQLHMKKHPFVMCNFAPPDMVGHTGVYEAAVKAVEATDIAIGRIYEACKKNDYILMVTADHGNAEKMMAPDGSKHTAHTCNLVPFTCSSMKYKFMDKLPDREMALCDVAPTVLKVMGVPLPSEMTGQPLVNEA

How the values were obtained:
C. elegans iPGM [1] = biological target: T1, C. elegans iPGM (Caenorhabditis elegans, UniProt G5EFZ1); assay: PGM enzyme assay (enolase–pyruvate kinase coupled, Kinase-Glo Plus end point) and IC50 determination; format: biochemical; settings: for IC50: iPGM ortholog not given
D. immitis iPGM = D. immitis iPGM (Dirofilaria immitis, UniProt F4ZE01); assay: biochemical
E. coli iPGM [2] = biological target: T2, E. coli iPGM (Escherichia coli, UniProt P37689); assay: SPR binding kinetics and saturation binding, biotinylated iPGM on Biotin CAPture chip (Biacore S200); settings: for koff / kon: LoQ = limit of quantitation
B. malayi iPGM = biological target: T3, B. malayi iPGM (Brugia malayi, UniProt Q4VWF8); assay: biochemical; format: binding; settings: for Kd: Supplementary Table 5, SPR, B.m. iPGM, unit inferred
T3 sequence (Q4VWF8 1-515): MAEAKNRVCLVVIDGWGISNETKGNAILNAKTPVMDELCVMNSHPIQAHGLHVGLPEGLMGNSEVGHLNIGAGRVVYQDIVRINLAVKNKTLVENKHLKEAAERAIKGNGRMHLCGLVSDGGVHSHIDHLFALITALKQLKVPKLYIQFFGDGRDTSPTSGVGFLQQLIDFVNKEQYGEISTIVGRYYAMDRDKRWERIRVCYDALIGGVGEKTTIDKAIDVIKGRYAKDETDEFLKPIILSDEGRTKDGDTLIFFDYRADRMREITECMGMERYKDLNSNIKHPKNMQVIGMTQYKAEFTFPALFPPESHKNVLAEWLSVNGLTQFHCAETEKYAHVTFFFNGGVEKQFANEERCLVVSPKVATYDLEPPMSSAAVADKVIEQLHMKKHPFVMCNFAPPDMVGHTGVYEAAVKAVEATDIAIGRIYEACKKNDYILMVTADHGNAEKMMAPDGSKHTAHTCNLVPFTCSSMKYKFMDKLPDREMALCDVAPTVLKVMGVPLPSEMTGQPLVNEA

E. coli iPGM [3] = biological target: T2, E. coli iPGM; assay: biochemical; settings: […]
C. elegans iPGM [4] = biological target: T1, C. elegans iPGM; assay: SPR binding kinetics and saturation binding, biotinylated iPGM on Biotin CAPture chip (Biacore S200)
Ce-2 = biological target: T4, Ce-2 (synthetic construct, thioether N-8); assay: SPR
T4 chain: {CH2CO}-[dY]DYPGDYCYLYGTC

Ce-2 Thr13Ser = biological target: T5, Ce-2 Thr13Ser (synthetic construct, thioether N-8); assay: SPR
T5 chain: {CH2CO}-[dY]DYPGDYCYLYGSC

Ce-1 NHOH = biological target: T6, Ce-1 NHOH (synthetic construct, thioether N-8; SMILES …); assay: SPR
T6 chain: {CH2CO}-[dY]DYPGDHCYLYGT-{NHOH}

[5] = Supplementary Table 5, SPR, E.c. iPGM
[6] = Supplementary Table 5, SPR, E.c. iPGM, unit inferred
[7] = SPR, 25 °C, global fit to 1:1 binding model

| Molecule | IC50 (D. immitis iPGM; Di iPGM Ave IC50 (M)) [M] | koff (E. coli iPGM [2]; [5]) [s⁻¹] | kon (E. coli iPGM [2]; [5]) [M⁻¹ s⁻¹] | Kd (E. coli iPGM [2]; [6]) [µM] | koff (B. malayi iPGM) [s⁻¹] | kon (B. malayi iPGM) [M⁻¹ s⁻¹] | Kd (B. malayi iPGM) [nM] | IC50 (E. coli iPGM [3]) [µM] | Kd (C. elegans iPGM [4]) [nM] | koff (C. elegans iPGM [4]) [s⁻¹] | kon (C. elegans iPGM [4]) [M⁻¹ s⁻¹] | further results |
| --- | --- | --- | --- | --- | --- | --- | --- | --- | --- | --- | --- | --- |
| CC[C@H](C)[C@H](NC(=O)[C@H](Cc1ccc(O)cc1)NC(=O)[C@@H]1CSCC(=O)N[C@H](Cc2ccc(O)cc2)C(=O)N[C@@H](CC(=O)O)C(=O)N[C@@H](Cc2ccc(O)cc2)C(=O)N2CCC[C@H]2C(=O)NCC(=O)N[C@@H](CC(=O)O)C(=O)N[C@@H](Cc2ccc(O)cc2)C(=O)N1)C(=O)N[C@@H](Cc1ccc(O)cc1)C(N)=O [Ce-2d L10I] | 5.03e-07 | – | – | – | – | – | – | – | – | – | – | IC50 (C. elegans iPGM [1]; IC50, text, C. elegans by contrast with nematode orthologs): 0.025 µM |
| CC(C)C[C@H](NC(=O)[C@H](Cc1ccc(O)cc1)NC(=O)[C@@H]1CSCC(=O)N[C@H](Cc2ccc(O)cc2)C(=O)N[C@@H](CC(=O)O)C(=O)N[C@@H](Cc2ccc(O)cc2)C(=O)N2CCC[C@H]2C(=O)NCC(=O)N[C@@H](CC(=O)O)C(=O)N[C@@H](Cc2c[nH]cn2)C(=O)N1)C(=O)N[C@@H](Cc1ccc(O)cc1)C(=O)NCC(=O)N[C@H](C(=O)NO)[C@@H](C)O [Ce-1 NHOH] | 2.92e-09 | 0.914 | 181000 | 5.14 | 0.00148 | 203000 | 11.5 | 8.97 | 0.109 | 0.000171 | 1.86e+06 | t½ (E. coli iPGM [2]; SPR, dissociation half-life): ≤1 s; Kd (E. coli iPGM [2]; SPR, Req hyperbolic fit where steady state reached, else koff/kon): 5 µM; koff (B. malayi iPGM; [7]): 0.0015 s⁻¹; kon (B. malayi iPGM; [7]): 200000 M⁻¹ s⁻¹; koff (C. elegans iPGM [4]; [7]): 7.8e-05 s⁻¹; kon (C. elegans iPGM [4]; [7]): 1.9e+06 M⁻¹ s⁻¹ |
| CCC[C@@H]1NC(=O)[C@@H](Cc2ccc(O)cc2)NC(=O)CSC[C@@H](C(=O)N[C@@H](Cc2ccc(O)cc2)C(=O)N[C@@H](CC(C)C)C(=O)N[C@@H](Cc2ccc(O)cc2)C(=O)NCC(=O)N[C@H](C(=O)N[C@@H](CS)C(N)=O)[C@@H](C)O)NC(=O)[C@H](Cc2ccc(O)cc2)NC(=O)[C@H](CC(=O)O)NC(=O)CNC(=O)[C@@H]2CCCN2C(=O)[C@H](Cc2ccc(O)cc2)NC1=O [Ce-2 D2Nva] ({CH2CO}-[dY][Nva]YPGDYCYLYGTC-NH2; thioether N-8) | 1.51e-09 | 0.00195 | 132000 | 0.0471 | 0.000143 | 376000 | 0.378 | 8.73 | 0.0257 | 4.98e-05 | 1.94e+06 | IC50 (D. immitis iPGM; IC50 (M)): 1.46e-09 M |
| CC(C)C[C@H](NC(=O)[C@H](Cc1ccc(O)cc1)NC(=O)[C@@H]1CSCC(=O)N[C@H](Cc2ccc(O)cc2)C(=O)N[C@@H](CC(=O)O)C(=O)N[C@@H](Cc2ccc(O)cc2)C(=O)N[C@@H](C(C)C)C(=O)NCC(=O)N[C@@H](CC(=O)O)C(=O)N[C@@H](Cc2ccc(O)cc2)C(=O)N1)C(=O)N[C@@H](Cc1ccc(O)cc1)C(=O)NCC(=O)N[C@H](C(=O)N[C@@H](CS)C(N)=O)[C@@H](C)O [Ce-2 P4V] | 2.14e-09 | 0.000272 | 37300 | 0.00729 | 7.52e-05 | 194000 | 0.407 | 8.96 | 0.0668 | 1.15e-05 | 173000 | – |
| CC(C)C[C@H](NC(=O)[C@H](Cc1ccc(O)cc1)NC(=O)[C@@H]1CSCC(=O)N[C@H](Cc2ccc(O)cc2)C(=O)N[C@@H](CC(=O)O)C(=O)N[C@@H](Cc2ccc(O)cc2)C(=O)N2CCC[C@H]2C(=O)NCC(=O)N[C@@H](CC(=O)O)C(=O)N[C@@H](Cc2ccc(O)cc2)C(=O)N1)C(=O)N[C@@H](Cc1ccc(O)cc1)C(=O)NCC(=O)NCC(=O)N[C@@H](CS)C(N)=O [Ce-2 T13G] | 1.08e-09 | 0.00133 | 299000 | 0.0108 | 6.11e-05 | 1.19e+06 | 0.0493 | 0.0994 | 0.0433 | 5.77e-05 | 1.32e+06 | IC50 (D. immitis iPGM; IC50 (M)): 9.2e-10 M |
| CC(C)C[C@@H]1NC(=O)[C@H](Cc2ccc(O)cc2)NC(=O)[C@H](CS)NC(=O)[C@H](Cc2ccc(O)cc2)NC(=O)[C@H](CC(=O)O)NC(=O)CNC(=O)[C@@H]2CCCN2C(=O)[C@H](Cc2ccc(O)cc2)NC(=O)[C@H](CC(=O)O)NC(=O)[C@@H](Cc2ccc(O)cc2)NC(=O)CSC[C@@H](C(N)=O)NC(=O)[C@H]([C@@H](C)O)NC(=O)CNC(=O)[C@H](Cc2ccc(O)cc2)NC1=O [Ce-2 [Y1-->C14]] | 6.52e-06 | – | – | – | – | – | – | – | – | – | – | inhibitory activity (C. elegans iPGM [1]): inactive |
| CC(=O)N[C@@H](Cc1ccc(O)cc1)C(=O)NCC(=O)N[C@H](C(=O)N[C@@H](CS)C(N)=O)[C@@H](C)O [Ac-YGTCNH2, Ac-YGTC-CONH2] (Ac-YGTC-NH2) | > 0.001 | – | – | – | – | – | – | – | – | – | – | IC50 (C. elegans iPGM [1]; IC50, metal-ion–coordinating sequence alone): > 500 µM |
| CC(C)C[C@H](NC(=O)[C@H](Cc1ccc(O)cc1)NC(=O)[C@@H]1CSCC(=O)N[C@H](Cc2ccc(O)cc2)C(=O)N[C@@H](CC(=O)O)C(=O)N[C@@H](Cc2ccc(F)cc2)C(=O)N2CCC[C@H]2C(=O)NCC(=O)N[C@@H](CC(=O)O)C(=O)N[C@@H](Cc2ccc(O)cc2)C(=O)N1)C(=O)N[C@@H](Cc1ccc(O)cc1)C(=O)NCC(=O)N[C@H](C(=O)N[C@@H](CS)C(N)=O)[C@@H](C)O [Ce-2 Y3(4F)F] ({CH2CO}-[dY]D[Phe(4-F)]PGDYCYLYGTC-NH2; thioether N-8) | 1.52e-09 | – | – | – | – | – | – | 4.18 | – | – | – | – |
| B1 | – | – | – | – | – | – | – | – | – | – | – | Kd (Ce-2): 69 nM; Kd (Ce-2 Thr13Ser): 1.3 nM; Kd (Ce-1 NHOH): 5 µM |
| B2 | – | – | – | – | – | – | – | – | – | – | – | Kd (Ce-2): 0.038 nM; Kd (Ce-2 Thr13Ser): 0.029 nM; Kd (Ce-1 NHOH): 0.00011 µM |
| B3 | – | – | – | – | – | – | – | – | – | – | – | Kd (Ce-2): 0.5 nM; Kd (Ce-2 Thr13Ser): 0.085 nM; Kd (Ce-1 NHOH): 0.012 µM |
